According to patent publication US4024277A, “Phosphoro-aminosulfenyl derivatives of benzofuran carbamates” (priority 1975, dated 1977):

Experiments:
large milkweed bug [1] = experiment: Initial insecticidal activity, milkweed bug; assay type: in vivo, Oncopeltus fasciatus (Dallas); settings: Oncopeltus fasciatus, 48-hour exposure, read-out: % Kill, Milkweed Bug
In short: (§1)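 Candidate insecticide solutions were sprayed or dipped onto plants or containers, infested before or after treatment depending on species. Mortality was read after a 48-hour exposure, alongside a solvent-only control.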

plum curculio [2] = experiment: Initial insecticidal activity, plum curculio; assay type: in vivo, Conotrachelus nenuphar (Herbst); settings: Conotrachelus nenuphar, 48-hour exposure, read-out: % Kill, Plum Curculio
In short: as §1

Mexican bean beetle [3] = experiment: Initial insecticidal activity, Mexican bean beetle; assay type: in vivo, Epilachna varivestis Mulsant; settings: Epilachna varivestis, 48-hour exposure, read-out: % Kill, Mexican Bean Beetle
In short: as §1

pea aphid [4] = experiment: Initial insecticidal activity, pea aphid; assay type: in vivo, Acyrthosiphon pisum (Harris); settings: Acyrthosiphon pisum, 48-hour exposure, read-out: % Kill, Pea Aphid
In short: as §1

southern armyworm = experiment: Initial insecticidal activity, southern armyworm; assay type: in vivo, Spodoptera eridania (Cramer); settings: Spodoptera eridania, 48-hour exposure, read-out: % Kill, Southern Armyworm
In short: as §1

twospotted spider mite [5] = experiment: Initial insecticidal activity, twospotted spider mite; assay type: in vivo, Tetranychus urticae Koch; settings: Tetranychus urticae, 48-hour exposure, read-out: % Kill, Twospotted Spider Mite
In short: as §1

large milkweed bug [6] = experiment: Seven-day residual insecticidal activity, milkweed bug; assay type: in vivo, Oncopeltus fasciatus (Dallas); settings: Oncopeltus fasciatus, 48-hour exposure, read-out: % Kill, Milkweed Bug
From the text: (§2) b. Seven-Day Residual Insecticidal Activity
(§3) In this test, a candidate insecticide, in solution, is applied to uninfested plants or containers by dipping or spraying. A seven-day holding period is necessary before infestation. A 48-hour exposure period is observed before evaluation of the tests. The insect species used in this type of test are the same as those listed under initial activity.

plum curculio [7] = experiment: Seven-day residual insecticidal activity, plum curculio; assay type: in vivo, Conotrachelus nenuphar (Herbst); settings: Conotrachelus nenuphar, 48-hour exposure, read-out: % Kill, Plum Curculio
From the text: as §2, §3

confused flour beetle = experiment: Seven-day residual insecticidal activity, confused flour beetle; assay type: in vivo, Tribolium confusum Jacquelin duVal; settings: Tribolium confusum, 48-hour exposure, read-out: % Kill, Confused Flour Beetle
From the text: as §2, §3

Mexican bean beetle [8] = experiment: Seven-day residual insecticidal activity, Mexican bean beetle; assay type: in vivo, Epilachna varivestis Mulsant; settings: Epilachna varivestis, 48-hour exposure, read-out: % Kill, Mexican Bean Beetle
From the text: as §2, §3

pea aphid [9] = experiment: Seven-day residual insecticidal activity, pea aphid; assay type: in vivo, Acyrthosiphon pisum (Harris); settings: Acyrthosiphon pisum, 48-hour exposure, read-out: % Kill, Pea Aphid
From the text: as §2, §3

Mexican bean beetle [10] = experiment: Systemic insecticidal activity (soil/water), Mexican bean beetle; assay type: in vivo, Epilachna varivestis Mulsant; settings: Epilachna varivestis, 48-hour exposure, read-out: % Kill, Mexican Bean Beetle
In short: (§4)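 Compound solution applied to soil of uninfested pinto bean or broad bean seedlings, host chosen by insect species. Usually a 72-hour translocation period preceded infestation, then a 48-hour exposure before evaluation.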

pea aphid [11] = experiment: Systemic insecticidal activity (soil/water), pea aphid; assay type: in vivo, Acyrthosiphon pisum (Harris); settings: Acyrthosiphon pisum, 48-hour exposure, read-out: % Kill, Pea Aphid
In short: as §4

twospotted spider mite [12] = experiment: Systemic insecticidal activity (soil/water), twospotted spider mite; assay type: in vivo, Tetranychus urticae Koch; settings: Tetranychus urticae, 48-hour exposure, read-out: % Kill, Twospotted Spider Mite
In short: as §4

German cockroaches [13] = experiment: Level I immersion test, German cockroaches; assay type: in vivo, Blattella germanica (Linnaeus); settings: GC (male), 5 mg/milliliter; for mortality at 5000 µg/mL: Blattella germanica, 18-24 hours, read-out: % Kill; for % Knockdown: 30 minutes after immersion
Procedure: (§5) e. Insecticidal Activity Against House Flies and German Cockroaches
Compounds of this invention were tested in a Level I test at 5 mg. of active compounds/milliliter of a solution of 40% acetone -- 60% water.
In this test a group of ten house flies (Musca domestica Linnaeus) were completely immersed in 25 ml. of the insecticidal test solution. After 10 seconds of immersion, the test solution is removed. The house flies are then transferred to holding cages lines with paper toweling. In the case of the house flies, the knockdown counts were recorded 10 minutes after termination of the immersion. The percent kill was recorded after 18-24 hours.
The same Level I test technique was employed using male German cockroaches [Blattella germanica (Linnaeus)]. In this case, the knockdown counts were recorded 30 minutes after the termination of the immersion.

German cockroaches [14] = experiment: Level II topical test, German cockroaches; assay type: in vivo, Blattella germanica (Linnaeus); settings: GC (male), one microgram topically per insect; for mortality at 0.001 mg: Blattella germanica, topical, read-out: % Kill; for % Knockdown: 30 minutes
Procedure: as §5
In a Level II test the compounds of this invention were tested for insecticidal activity against female house flies (resistant) and male German cockroaches. Ten insects were anesthetized with carbon dioxide and placed in a container for about 2 hours, during which time the insects recovered to normal activity. The container confining the insects is fitted with a plunger which is used to force the insects against a nylon mesh at one end of the container. One microliter of an acetone solution containing one microgram of the candidate insecticide was applied topically to each insect. The plunger was withdrawn and the insects were allowed to move freely about the container. Knockdown counts were recorded 10 minutes after treatment of house flies and 30 minutes after treatment of cockroaches.

**Q.** Which results are given for CCOP(=O)(OCC)N(CC)SN(C)C(=O)Oc1cccc2c1OC(C)(C)C2 [8(c), 2,3-Dihydro-2,2-dimethyl-7-benzofuranyl [(N-diethoxyphosphinyl) (N-ethyl)aminosulfenyl][methyl]carbamate]?
**A.** mortality at 39 ppm (large milkweed bug [1]): 100%; mortality at 156 ppm (large milkweed bug [1]): 100%; mortality at 1250 ppm (large milkweed bug [1]): 100%; mortality at 39 ppm (plum curculio [2]): 0%; mortality at 156 ppm (plum curculio [2]): 45%; mortality at 1250 ppm (plum curculio [2]): 100%; mortality at 39 ppm (Mexican bean beetle [3]): 100%; mortality at 156 ppm (Mexican bean beetle [3]): 100%; mortality at 1250 ppm (Mexican bean beetle [3]): 100%; mortality at 39 ppm (pea aphid [4]): 0%; mortality at 156 ppm (pea aphid [4]): 83%; mortality at 1250 ppm (pea aphid [4]): 100%; mortality at 39 ppm (southern armyworm): 0%; mortality at 156 ppm (southern armyworm): 59%; mortality at 1250 ppm (southern armyworm): 100%; mortality at 39 ppm (twospotted spider mite [5]): 5%; mortality at 156 ppm (twospotted spider mite [5]): 36%; mortality at 1250 ppm (twospotted spider mite [5]): 100%; mortality at 39 ppm (large milkweed bug [6]): 95%; mortality at 156 ppm (large milkweed bug [6]): 100%; mortality at 1250 ppm (large milkweed bug [6]): 100%; mortality at 39 ppm (plum curculio [7]): 0%; mortality at 156 ppm (plum curculio [7]): 5%; mortality at 1250 ppm (plum curculio [7]): 100%; mortality at 39 ppm (confused flour beetle): 0%; mortality at 156 ppm (confused flour beetle): 0%; mortality at 1250 ppm (confused flour beetle): 12%; mortality at 39 ppm (Mexican bean beetle [8]): 12%; mortality at 156 ppm (Mexican bean beetle [8]): 93%; mortality at 1250 ppm (Mexican bean beetle [8]): 100%; mortality at 39 ppm (pea aphid [9]): 0%; mortality at 156 ppm (pea aphid [9]): 0%; mortality at 1250 ppm (pea aphid [9]): 0%; mortality at 39 ppm (Mexican bean beetle [10]): 67%; mortality at 156 ppm (Mexican bean beetle [10]): 100%; mortality at 39 ppm (pea aphid [11]): 0%; mortality at 156 ppm (pea aphid [11]): 100%; mortality at 39 ppm (twospotted spider mite [12]): 4%; mortality at 156 ppm (twospotted spider mite [12]): 13%; mortality at 5000 µg/mL (German cockroaches [13]): 100%; % Knockdown (German cockroaches [13]): 100%; mortality at 0.001 mg (German cockroaches [14]): 0%; % Knockdown (German cockroaches [14]): 0%

**Q.** CCOP(=O)(OCC)N(C)SN(C)C(=O)Oc1cccc2c1OC(C)(C)C2 [Example 1(c), 2,3-dihydro-2,2-dimethyl-7-benzofuranyl [(N-diethoxyphosphinyl) (N-methyl)-aminosulfenyl][methyl]carbamate] was tested. Which mortality at 39 ppm (large milkweed bug [1]) did it give?
**A.** 100%

**Q.** What about the mortality at 156 ppm (large milkweed bug [1]) of the same molecule?
**A.** 100%

**Q.** What about the mortality at 1250 ppm (large milkweed bug [1]) of the same molecule?
**A.** 100%

**Q.** And the mortality at 39 ppm (plum curculio [2])?
**A.** 0%

**Q.** And the mortality at 156 ppm (plum curculio [2])?
**A.** 15%

**Q.** And the mortality at 1250 ppm (plum curculio [2])?
**A.** 100%

**Q.** What about the mortality at 39 ppm (Mexican bean beetle [3]) of the same molecule?
**A.** 100%

**Q.** What about the mortality at 156 ppm (Mexican bean beetle [3]) of the same molecule?
**A.** 100%

**Q.** And the mortality at 1250 ppm (Mexican bean beetle [3])?
**A.** 100%

**Q.** And the mortality at 39 ppm (pea aphid [4])?
**A.** 0%

**Q.** And the mortality at 156 ppm (pea aphid [4])?
**A.** 100%

**Q.** What about the mortality at 1250 ppm (pea aphid [4]) of the same molecule?
**A.** 100%

**Q.** And the mortality at 39 ppm (southern armyworm)?
**A.** 6%

**Q.** And the mortality at 156 ppm (southern armyworm)?
**A.** 20%

**Q.** And the mortality at 1250 ppm (southern armyworm)?
**A.** 95%

**Q.** And the mortality at 39 ppm (twospotted spider mite [5])?
**A.** 21%

**Q.** And the mortality at 156 ppm (twospotted spider mite [5])?
**A.** 37%

**Q.** What about the mortality at 1250 ppm (twospotted spider mite [5]) of the same molecule?
**A.** 100%

**Q.** What about the mortality at 39 ppm (large milkweed bug [6]) of the same molecule?
**A.** 55%

**Q.** And the mortality at 156 ppm (large milkweed bug [6])?
**A.** 100%

**Q.** What about the mortality at 1250 ppm (large milkweed bug [6]) of the same molecule?
**A.** 100%

**Q.** What about the mortality at 39 ppm (plum curculio [7]) of the same molecule?
**A.** 0%

**Q.** What about the mortality at 156 ppm (plum curculio [7]) of the same molecule?
**A.** 22%

**Q.** What about the mortality at 1250 ppm (plum curculio [7]) of the same molecule?
**A.** 85%

**Q.** What about the mortality at 39 ppm (confused flour beetle) of the same molecule?
**A.** 10%

**Q.** What about the mortality at 156 ppm (confused flour beetle) of the same molecule?
**A.** 18%

**Q.** And the mortality at 1250 ppm (confused flour beetle)?
**A.** 23%

**Q.** What about the mortality at 39 ppm (Mexican bean beetle [8]) of the same molecule?
**A.** 38%

**Q.** What about the mortality at 156 ppm (Mexican bean beetle [8]) of the same molecule?
**A.** 89%

**Q.** And the mortality at 1250 ppm (Mexican bean beetle [8])?
**A.** 86%

**Q.** What about the mortality at 39 ppm (pea aphid [9]) of the same molecule?
**A.** 0%

**Q.** What about the mortality at 156 ppm (pea aphid [9]) of the same molecule?
**A.** 0%

**Q.** And the mortality at 1250 ppm (pea aphid [9])?
**A.** 100%

**Q.** What about the mortality at 39 ppm (Mexican bean beetle [10]) of the same molecule?
**A.** 100%

**Q.** And the mortality at 156 ppm (Mexican bean beetle [10])?
**A.** 95%

**Q.** What about the mortality at 39 ppm (pea aphid [11]) of the same molecule?
**A.** 100%

**Q.** And the mortality at 156 ppm (pea aphid [11])?
**A.** 100%

**Q.** And the mortality at 39 ppm (twospotted spider mite [12])?
**A.** 2%

**Q.** What about the mortality at 156 ppm (twospotted spider mite [12]) of the same molecule?
**A.** 8%

**Q.** And the mortality at 5000 µg/mL (German cockroaches [13])?
**A.** 100%

**Q.** And the “% Knockdown” value (German cockroaches [13])?
**A.** 100%

**Q.** What about the mortality at 0.001 mg (German cockroaches [14]) of the same molecule?
**A.** 0%

**Q.** What about the “% Knockdown” value (German cockroaches [14]) of the same molecule?
**A.** 0%
